Results published in US4820694A, “Modifications of 3-O-demethylmycinose in macrocin and lactenocin” (priority 1986, dated 1989).
≈ marks a conversion by molar mass, not a printed value. Read-outs that look alike come from different tables or passages of the source.

Experiments:
[1] = tested on: Haemophilus influenzae C.L.; assay: standard agar-dilution MIC assay; format: cell-based; conditions: Haemophilus influenzae
Method: (§1) The MIC's in Table III were determined by standard agar-dilution assays. The MIC's in Table IV were obtained using conventional brothdilution microtiter tests.

[2] = tested on: Haemophilus influenzae 76; assay: standard agar-dilution MIC assay; format: cell-based; conditions: Haemophilus influenzae, 76
Method: as §1

[3] = tested on: Streptococcus Group D X66; assay: standard agar-dilution MIC assay; format: cell-based; conditions: read-out: MIC
Method: as §1

[4] = tested on: Staphylococcus aureus X400; assay: standard agar-dilution MIC assay; format: cell-based; conditions: Staphylococcus aureus, X400
Method: as §1

[5] = tested on: Staphylococcus aureus X1.1; assay: standard agar-dilution MIC assay; format: cell-based; conditions: Staphylococcus aureus, X1.1
Method: as §1

[6] = tested on: Staphylococcus aureus V41; assay: standard agar-dilution MIC assay; format: cell-based; conditions: Staphylococcus aureus, V41
Method: as §1

[7] = tested on: Staphylococcus epidermidis EPI1; assay: standard agar-dilution MIC assay; format: cell-based; conditions: Staphylococcus epidermidis, EPI1
Method: as §1

[8] = tested on: Streptococcus pyogenes C203; assay: standard agar-dilution MIC assay; format: cell-based; conditions: Streptococcus pyogenes, C203
Method: as §1

[9] = tested on: Escherichia coli EC14; assay: standard agar-dilution MIC assay; format: cell-based
Method: as §1

[10] = tested on: Staphylococcus epidermidis EP12; assay: standard agar-dilution MIC assay; format: cell-based
Method: as §1

[11] = tested on: Streptococcus Group D 9960; assay: standard agar-dilution MIC assay; format: cell-based; conditions: GROUPD9960, read-out: MIC
Method: as §1

[12] = tested on: Pseudomonas aeruginosa X239; assay: standard agar-dilution MIC assay; format: cell-based; conditions: Pseudomonas aeruginosa, X239
Method: as §1

[13] = tested on: Klebsiella pneumoniae X68; assay: standard agar-dilution MIC assay; format: cell-based; conditions: Klebsiella pneumoniae, X68
Method: as §1

[14] = tested on: Pasteurella hemolytica 22C; assay: broth-dilution microtiter MIC test; format: cell-based; conditions: Pasteurella, 22C
Method: as §1

[15] = tested on: Streptococcus sp. 19F; assay: broth-dilution microtiter MIC test; format: cell-based; conditions: Streptococcus, SP.19F
Method: as §1

[16] = tested on: Staphylococcus aureus 19C; assay: broth-dilution microtiter MIC test; format: cell-based; conditions: Staphylococcus aureus, 19C
Method: as §1

[17] = tested on: Mycoplasma synoviae 40A; assay: broth-dilution microtiter MIC test; format: cell-based; conditions: Mycoplasmopsis synoviae, 40A
Method: as §1

[18] = tested on: Mycoplasma hyorhinis 29E; assay: broth-dilution microtiter MIC test; format: cell-based; conditions: Mycoplasma, 29E
Method: as §1

[19] = tested on: Pasteurella multocida 22A; assay: broth-dilution microtiter MIC test; format: cell-based; conditions: Pasteurella multocida, 22A
Method: as §1

[20] = tested on: Pasteurella multocida 68C; assay: broth-dilution microtiter MIC test; format: cell-based; conditions: Pasteurella multocida, 68C
Method: as §1

[21] = tested on: Pasteurella multocida 40G; assay: broth-dilution microtiter MIC test; format: cell-based; conditions: Pasteurella multocida, 40G
Method: as §1

[22] = tested on: Pasteurella multocida 60A; assay: broth-dilution microtiter MIC test; format: cell-based; conditions: Pasteurella multocida, 60A
Method: as §1

[23] = tested on: Bordetella bronchiseptica; assay: broth-dilution microtiter MIC test; format: cell-based; conditions: Bordetella bronchiseptica
Method: as §1

[24] = tested on: Pasteurella hemolytica 41D; assay: broth-dilution microtiter MIC test; format: cell-based; conditions: Pasteurella, 41D
Method: as §1

[25] = tested on: Mycoplasma gallisepticum 29C; assay: broth-dilution microtiter MIC test; format: cell-based; conditions: Mycoplasmoides gallisepticum, 29C
Method: as §1

[26] = tested on: Mycoplasma gallisepticum 15E; assay: broth-dilution microtiter MIC test; format: cell-based; conditions: Mycoplasmoides gallisepticum, 15E
Method: as §1

[27] = tested on: Pasteurella multocida 17E; assay: broth-dilution microtiter MIC test; format: cell-based; conditions: Pasteurella multocida, 17E
Method: as §1

[28] = tested on: Pasteurella hemolytica 23C; assay: broth-dilution microtiter MIC test; format: cell-based; conditions: Pasteurella, 23C
Method: as §1

[29] = tested on: Mycoplasma gallisepticum 36H; assay: broth-dilution microtiter MIC test; format: cell-based; conditions: Mycoplasmoides gallisepticum, 36H
Method: as §1

[30] = tested on: Streptococcus pneumoniae Park I; assay: microbe, parasite or virus in culture; format: cell-based; conditions: Streptococcus pneumoniae
Method: as §1

[31] = tested on: Staphylococcus aureus S13E; assay: microbe, parasite or virus in culture; format: cell-based; conditions: Staphylococcus aureus, S13E
Method: as §1

[32] = tested on: Streptococcus pyogenes C203; assay: protection of mice experimentally infected with S. pyogenes C203; format: in vivo
Method: The formula 1 compounds have shown in vivo antimicrobial activity against experimentally-induced infections in laboratory animals. When two doses of test compound were administered to mice experimentally infected with S. pyrogenes C203, the activity observed was measured as an ED50 value [effective dose in mg/kg to protect 50% of the test animals: see Warren Wick, et al., J. Bacteriol. 81, 233-235 (1961)].
^a mg/kg × 2; doses given 1 and 4 hours postinfection

[33] = broth-dilution microtiter, read-out: MIC

Structure (SMILES)	MIC [2]	MIC [3]	MIC [4]	MIC [8]	MIC [9]	MIC [11]	MIC [12]	MIC [13]	MIC [14]	MIC [19]	MIC [20]	MIC [21]	MIC [22]	MIC [23]	MIC [24]	MIC [26]	MIC [27]	MIC [28]	MIC [29]	MIC [31]	other results
CCC1OC(=O)CC(O)C(C)C(OC2OC(C)C(OC3CC(C)(O)C(O)C(C)O3)C(N(C)C)C2OC(C)=O)C(CC=O)CC(C)C(=O)C=CC(C)=CC1COC1OC(C)C(OC(C)=O)C(O)C1OC (centres unmarked) [Compound 1, 2',4'"-Di-O-acetyl-macrocin]	1 µg/mL (≈ 1.01 µM)	4 µg/mL (≈ 4.06 µM)	4 µg/mL (≈ 4.06 µM)	1 µg/mL (≈ 1.01 µM)	> 128 µg/mL	4 µg/mL (≈ 4.06 µM)	> 128 µg/mL	> 128 µg/mL	> 50 µg/mL	> 50 µg/mL	> 50 µg/mL	> 50 µg/mL	> 50 µg/mL	> 50 µg/mL	> 50 µg/mL	> 50 µg/mL	> 50 µg/mL	> 50 µg/mL	> 50 µg/mL	4 µg/mL (≈ 4.06 µM)	MIC ([1]; agar-dilution, Ampicillin-sensitive strain, read-out: MIC): 64 µg/mL (≈ 64.9 µM); MIC ([5]; agar-dilution, read-out: MIC): 2 µg/mL (≈ 2.03 µM); MIC ([6]; agar-dilution, Penicillin-resistant strain, read-out: MIC): 2 µg/mL (≈ 2.03 µM); MIC ([7]; agar-dilution, read-out: MIC): 2 µg/mL (≈ 2.03 µM); MIC ([10]; agar-dilution, read-out: MIC): 2 µg/mL (≈ 2.03 µM); MIC [15, 33]: 3.12 µg/mL (≈ 3.16 µM); MIC [16, 33]: 6.25 µg/mL (≈ 6.34 µM); MIC [17, 33]: 1.56 µg/mL (≈ 1.58 µM); MIC [18, 33]: 25 µg/mL (≈ 25.4 µM); MIC [25, 33]: 0.78 µg/mL (≈ 0.791 µM); MIC ([30]; agar-dilution, read-out: MIC): 0.5 µg/mL (≈ 0.507 µM); ED50 ([32]; C203, Oral, mice, mg/kg × 2, doses given 1 and 4 hours postinfection, read-out: ED50): 43.5 mg/kg; ED50 ([32]; C203, sc, Subcutaneous, mice, mg/kg × 2, doses given 1 and 4 hours postinfection, read-out: ED50): 6.6 mg/kg
CCC1OC(=O)CC(O)C(C)C(OC2OC(C)C(OC3CC(C)(O)C(O)C(C)O3)C(N(C)C)C2OC(C)=O)C(CC=O)CC(C)C(=O)C=CC(C)=CC1COC1OC(C)C(OC(C)=O)C(OC(=O)Cc2ccccc2)C1OC (centres unmarked) [Compound 17, 2',4'"-Di-O-acetyl-3'"-O-phenylacetylmacrocin]	> 128 µg/mL	2 µg/mL (≈ 1.81 µM)	4 µg/mL (≈ 3.62 µM)	1 µg/mL (≈ 0.906 µM)	> 128 µg/mL	2 µg/mL (≈ 1.81 µM)	> 128 µg/mL	> 128 µg/mL	> 50 µg/mL	> 50 µg/mL	> 50 µg/mL	> 50 µg/mL	> 50 µg/mL	> 50 µg/mL	> 50 µg/mL	12.5 µg/mL (≈ 11.3 µM)	> 50 µg/mL	> 50 µg/mL	12.5 µg/mL (≈ 11.3 µM)	4 µg/mL (≈ 3.62 µM)	MIC [1]: > 128 µg/mL; MIC [5]: 2 µg/mL (≈ 1.81 µM); MIC [6]: 2 µg/mL (≈ 1.81 µM); MIC [7]: 4 µg/mL (≈ 3.62 µM); MIC [10]: 2 µg/mL (≈ 1.81 µM); MIC [15]: 1.56 µg/mL (≈ 1.41 µM); MIC [16]: 3.12 µg/mL (≈ 2.83 µM); MIC [17]: 1.56 µg/mL (≈ 1.41 µM); MIC [18]: 3.12 µg/mL (≈ 2.83 µM); MIC [25]: 0.39 µg/mL (≈ 0.353 µM); MIC [30]: 1 µg/mL (≈ 0.906 µM); ED50 ([32]; C203, sc): > 10 mg/kg
